The source of these data is patent US20230147718A1, “COMPOSITION FOR CANCER PREVENTION OR TREATMENT, CONTAINING, AS ACTIVE INGREDIENT, SALVIANOLIC ACID B OR TANSHINONE I” (GJMEDI, priority 2020, published 2023).

In assay [1] the target is T1, KRAS G12V (Homo sapiens, UniProt P01116, G12V). The assay is described as follows: Isothermal titration calorimetry (ITC). As to conditions: 25° C., read-out: binding affinity KD. The procedure:
In order to identify the affinity of salvianolic acid B or tanshinone I for the KRAS mutant KRAS G12V protein, isothermal titration calorimetry (ITC) was used. KRAS G12V protein was dialyzed using buffer [20 mM Tris-HCl (pH 7.4), 100 mM NaCl, and 2 mM MgCl2]. Next, salvianolic acid B or tanshinone I was dissolved using the same buffer, and then the prepared KRAS G12V protein and salvianolic acid B or tanshinone I were injected into an isothermal calorimeter to perform isothermal titration thermometry. Titration measurement was performed at 25° C., involved with 20 injections at an interval of 200 seconds while salvianolic acid B or tanshinone I was stirred at 1,000 rpm. ΔS was calculated from standard thermodynamic equations using the calculated K and ΔH values. Isothermal titration thermometric analysis was performed using a MicroCal AutoITC200 (GE Healthcare, Sweden), and data were analyzed using the Origin 7.0 program.

Assay [2] relates to HCT116 (colon cancer). The assay is described as follows: MTT cell viability assay. Format: cell-based, human. The note with it: HCT116, cultured 24 and 48 hours, increasing concentrations; time- and dose-dependent. The procedure:
(§1) To verify the efficacy of salvianolic acid B (Sigma-Aldrich) and tanshinone I (Sigma-Aldrich) on tumor cells, MTT (3-(4,5-dimethylthiazol-2-yl)-2,5-diphenyltetrazolium bromide) assay was applied to measure cell viability.
(§2) For the experiment, AsPC-1 (pancreatic cancer), HCT116 (colon cancer), and NCI-H460 (lung cancer) were used as tumor cell lines, and each tumor cell was dispensed by 1×10^3 cells/well (100 μL). After dispensing, all cells were attached to the wells for 24 hours. […] After culturing the drug-treated tumor cells for 24 and 48 hours, MTT at a concentration of 5 mg/mL was added to each tumor cell, followed by culture for 90 minutes again. Finally, the optical density (OD) of the tumor cells was measured at 540 nm using a microplate reader (Molecular Devices, USA). The analysis was performed three or more times.
In general terms: Tetrazolium dyes change colour on reduction, which living cells bring about.

The subject of assay [3] is AsPC-1 (pancreatic cancer). The assay is described as follows: MTT cell viability assay. It is filed as cell-based, human. As to conditions: AsPC-1, cultured 24 and 48 hours, increasing concentrations; time- and dose-dependent. The method, then: as §1, §2
Assay [4] relates to NCI-H460 (lung cancer). As to the kind of experiment: MTT cell viability assay. It is filed as cell-based, human. The note with it: NCI-H460, cultured 24 and 48 hours, increasing concentrations; time- and dose-dependent. The method, then:
as §1, §2

The target in assay [5] is T1, KRAS G12V. The assay is described as follows: Guanine nucleotide binding assay. More on the design: made in house; host or cells: E. coli BL21 (DE3). As to conditions: in the presence of compound, 37° C., liquid scintillation counting. The procedure: The recombinant gene KRAS G12V was inserted into E. coli BL21 (DE3) for expression. The overexpressed protein was purified using affinity chromatography and gel filtration chromatography. Purified KRAS G12V protein was bound to Ni-NTA beads using binding buffer [50 mM Hepes (pH 7.5), 100 mM NaCl, 2 mM MgCl2, 1 mM EDTA, and 1 mM DTT] at 4° C. Ni-NTA beads bound with KRAS G12V proteins were washed with binding buffer and then reacted with radioisotope [α-^32P] GTP (2,500 cpm/pmol), GTP, and salvianolic acid B or tanshinone I at 37° C. The beads were then washed with wash buffer [20 mM Tris-HCl (pH 7.4), 100 mM NaCl, and 2 mM MgCl2]. 200 mM imidazole was used to elute the bead-bound KRAS G12V protein, and radioactive nucleotides were quantified by liquid scintillation counting.

pKd: −log10 of the molar value.

T1 sequence (P01116 1-188 isoform P01116-2 G12V): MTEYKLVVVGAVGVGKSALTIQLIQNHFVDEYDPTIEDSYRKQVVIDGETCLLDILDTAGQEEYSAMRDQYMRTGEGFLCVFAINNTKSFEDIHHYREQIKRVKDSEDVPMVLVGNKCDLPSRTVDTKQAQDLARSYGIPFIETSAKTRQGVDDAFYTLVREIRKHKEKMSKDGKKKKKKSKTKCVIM

What is called pKd is −log10 of the Kd, conventionally taken in molar units. On to `O=C(/C=C/c1ccc(O)c2c1[C@H](C(=O)O[C@H](Cc1ccc(O)c(O)c1)C(=O)O)[C@@H](c1ccc(O)c(O)c1)O2)O[C@H](Cc1ccc(O)c(O)c1)C(=O)O` [salvianolic acid B], for which, in assay [1], the pKd is 4.49. Further, the cell viability result in assay [2], in assay [3] and in assay [4] was “decrease in cell viability” throughout. Further, the “activity of radioisotope [α-32P] GTP binding of KRAS G12V” value in assay [5] is listed as “decreased”.

On to `Cc1coc2c1C(=O)C(=O)c1c-2ccc2c(C)cccc12` [tanshinone I], for which, in assay [1], the pKd is 4.68. Further, the cell viability result in assay [2], in assay [3] and in assay [4] was “decrease in cell viability” each time. Also, in assay [5], the “activity of radioisotope [α-32P] GTP binding of KRAS G12V” value is reported as “decreased”.
